Read-outs that look alike come from different tables or passages of the source.
Columns and labels:
[1] = Alamar Blue cell viability assay; assay type: cell-based, human; settings: human, HEK293 cells overexpressing 17β-HSD10, 50 μM compound, n = 3 ± SD, read-out: Alamar Blue % viability (50 μM dose)
Description: Cell viability was assessed via fluorescence change using the commercially available Alamar Blue from ThermoFisher. HEK293 cells overexpressing 17β-HSD10 were cultured in phenol-red free media (10% FBS, 1 mM sodium pyruvate, 100 units penicillin, 0.1 mg mL^–1 streptomycin, and 2 mM L-glutamine) and seeded at a density of 10,000 cells per well (100 μL, 96-well plates). […] Treated cells were then incubated at 37 °C and CO2 (5%) for 24 h before the assay was performed as per the manufacturer’s instructions. Fluorescence was measured at 530 nm excitation and 590 nm emission using the SpectraMaxM2e spectrophotometer.

[2] = system: HEK293 cells overexpressing 17β-HSD10; experiment: LDH cytotoxicity assay; assay type: cell-based, human; settings: 50 μM compound, 24 h, n = 3 ± SD
Description: Cell cytotoxicity was assessed via the measurement of LDH leakage into the culture medium using a commercially available kit from Pierce (Thermo Scientific cat no. 88953). This was carried out in accordance with the kit guidelines, with the activity of LDH being calculated from the change in absorbance at […]. Human embryonic kidney (HEK293) cells overexpressing 17β-HSD10 were cultured in phenol-red free media (10% FBS, 1 mM sodium pyruvate, 100 units penicillin, 0.1 mg mL^–1 streptomycin, and 2 mM L-glutamine) and seeded at a density of 10,000 cells per well (100 μL, 96-well plates). […] Treated cells were then incubated at 37 °C and CO2 (5%) for 24 h before the LDH assay was performed as per the manufacturer’s instructions. Spontaneous control (water) and maximum control (lysis buffer) were used in accordance with the kit guide. Absorbance was measured at 490 and 680 nm using the SpectraMaxM2e spectrophotometer. The measured LDH activity was used to calculate %cytotoxicity using the following equation (eq ): %cytotoxicity=(compoundtreatedLDHactivity−spontaneousLDHactivity)/(maximumLDHactivity−spontaneousLDHactivity)×100 1

[3] = molecular target: T1, 17β-HSD10 (Homo sapiens, UniProt Q99714); experiment: (−)-CHANA fluorescence assay of cellular 17β-HSD10 activity; assay type: cell-based; settings: read-out: cellular 17β-HSD10 activity mean pEC50 (converted)
T1 construct: Recombinant 17β-HSD10 was expressed and purified as previously described in Aitken et al; made in house
T1 sequence (Q99714 1-261): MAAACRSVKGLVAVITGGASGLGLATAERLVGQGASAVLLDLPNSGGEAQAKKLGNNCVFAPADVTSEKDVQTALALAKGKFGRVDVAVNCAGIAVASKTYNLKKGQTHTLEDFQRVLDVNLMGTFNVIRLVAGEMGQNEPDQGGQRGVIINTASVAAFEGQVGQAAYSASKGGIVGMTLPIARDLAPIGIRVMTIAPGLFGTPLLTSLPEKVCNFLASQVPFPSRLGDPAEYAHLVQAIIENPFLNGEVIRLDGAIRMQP
Description: (−)–CHANA ((−)-cyclohexenyl amino naphthalene alcohol) is a fluorogenic probe that can be used to detect 17β-HSD10 activity in living cells. HEK293 17β-HSD10 cells were seeded at a density of 10,000 cells per well (100 μL, 96-well black plates) in phenol-red free media (10% FBS, 1 mM sodium pyruvate, 100 units penicillin, 0.1 mg mL^–1 streptomycin, and 2 mM L-glutamine). […] The fluorogenic probe (−)–CHANA was then added to each well to give a final assay concentration of 20 μM. Fluorescence was immediately measured using the FLUOstar Optima microplate reader (excitation = 380 nm, emission = 520 nm, orbital averaging = 3 mm), and the initial reaction was monitored for 3–4 h. EC50 was calculated from the control-subtracted triplicates using nonlinear regression (four parameters) of GraphPad Prism 5 software. The Final EC50 and SEM values were obtained as a mean of at least three independent measurements.

[4] = molecular target: T1, 17β-HSD10; experiment: 17β-HSD10 enzyme inhibition dose-response assay (acetoacetyl-CoA/NADH, absorbance 340 nm); assay type: biochemical; settings: for fold improvement in activity/potency over hit ESC1002082: relative to ESC1002082
Description: Recombinant 17β-HSD10 was expressed and purified as previously described in Aitken et al.
17β-HSD10 screening was carried out as described in Aitken et al. with the exception that experiments were also conducted in clear-bottom 1536-well low-volume microplates (Corning) with a final assay volume of 20 μL. For primary screening, an endpoint assay format was adopted, in which an Echo acoustic liquid dispenser (Labcyte) was used to transfer 20 nL of either DMSO control […] or test compounds (10 μM) to the assay plate. 10 μL of the 17β-HSD10 enzyme in an assay buffer (2.5 nM) was then added to the plates using the Preddator liquid handling robot (Redd and Whyte), and plates were incubated at RT for 15 min. 10 μL of the substrate mixture (100 μM acetoacetyl-CoA and 100 μM NADH) was added with the Preddator. To start the reaction, the plates were left to incubate for 35 min at RT before the absorbance at 340 nm was read on the EnVision plate reader (PerkinElmer). For the kinetic assay format and dose-response follow-up experiments, the same protocol was adopted, except that the absorbance at 340 nm was monitored constantly for 45 min from immediately after the reaction was started.

[5] = Mouse hepatocyte metabolic stability; assay type: in vitro ADME; set-up: k (elimination constant): unit not given here; settings: mouse hepatocytes; for Heps category: metabolism category; for Cl (clearance): limits of quantitation 0.5 and 50; for half-life: read-out: T1/2 (half-life)
Description: Hepatocyte isolation, hepatocyte incubations for metabolic stability, plasma protein binding (PPB) experiments, and LC/MS sample analysis were carried out as previously described in Brandon et al. and MacLeod et al.
XLfit (IDBS, UK) was used to calculate the exponential decay and the rate constant (k) from the ratio of the peak area of the test compound to the internal standard at each time point. […] Verapamil, 7-ethoxycoumarin, 7-hydroxycoumarin, and phthalazine were used as positive controls to confirm acceptable assay performance. […] Values were transferred to RStudio v1.3.1093 (Posit, Boston, MA, USA) for generation of scatter plots and heatmaps using the ggplot2 package (Wickham 2016).

[6] = Table 4, 17β-HSD10 overexpressing HEK293 cells, CHANA fluorescence assay
[7] = Table 3, chemically modified singleton hit compound series, read-out: 17β-HSD10 pIC50 (converted)
[8] = Table 2, chemically modified cluster hit compounds, read-out: 17β-HSD10 pIC50 (converted)
[9] = Table 1, primary screening assay, resynthesized HTS hits, read-out: 17β-HSD10 pIC50 (converted)
[10] = Table 5, HEK293 17β-HSD10 cells, CHANA assay
[11] = Table 5, read-out: mean 17β-HSD10 pIC50 (converted)

EC50 [3, 6]	IC50 [4, 7]	IC50 [4, 8]	Structure (SMILES)	viability at 24 h, 50 μM [1]	LDH % toxicity (50 μM dose) [2]	also measured
			COc1cccc(-c2ccccc2C2CCCN2C(=O)c2sccc2Cl)c1 (racemic) [ESC1002432]	80.61 ± 0.78%	4.24 ± 0.02%	
0.228 µM	0.0407 µM		O=C(c1sccc1Cl)N1CCCC1c1ccccc1-c1cc(O)cc(F)c1 (racemic) [ESC1002776]	65.6 ± 1.67%	20.00 ± 0.11%	
		0.251 µM	Cc1ccc(C(=O)N(CC(C)C)c2cccc(N(C)Cc3cnc[nH]3)c2)cc1 [ESC1002032]			
			CC(C)CN(C(=O)c1ccncc1)c1cccc(N(C)Cc2cnc[nH]2)c1 [ESC1002034]			IC50 [4, 9]: 1.58 µM
			COc1cccc(C(=O)N(CC(C)C)c2cccc(N(C)Cc3cnc[nH]3)c2)c1 [ESC1002038]			IC50 [4, 9]: 2 µM
		0.316 µM	CC(C)CN(C(=O)c1ccc(Cl)cc1F)c1cccc(N(C)Cc2cnc[nH]2)c1 [ESC1002042]			LipE ([4]; Table 1, lipophilic efficiency): 1.46
			O=C(c1ccccc1F)N1CCCc2ccc(NCc3cnc[nH]3)cc21 [ESC1002081]			17β-HSD10 inhibitory activity (in words) [4]: potency was abolished
1.79 µM	0.331 µM		COc1ccc(-c2ccccc2[C@@H]2CCCN2C(=O)c2sccc2C)cc1 [ESC1002089]	82 ± 2.23%	5.40 ± 0.05%	fold improvement in activity/potency over hit ESC1002082 [4]: ~3 fold
	1.15 µM		Cc1ccsc1C(=O)N1CCC[C@H]1c1ccccc1-c1cccnc1 [ESC1002090]			
			COc1ccc(-c2ccccc2[C@@H]2CCCN2C(=O)c2sccc2C)cn1 [ESC1002161]			17β-HSD10 pIC50 ([4]; Supplementary B, Table S1 and text, enantiomers): < 4.7
0.976 µM		0.955 µM	CC(C)CN(C(=O)C1CCCCC1)c1cccc(N(C)Cc2cnc[nH]2)c1 [ESC1002166]	78.9 ± 0.9%	4.55 ± 0.02%	
1.67 µM		0.331 µM	COc1ccc(C(=O)N(CC(C)C)c2cccc(N(C)Cc3cnc[nH]3)c2)cc1 [ESC1002182]	85.4 ± 3.61%	4.73 ± 0.01%	
1.36 µM		0.398 µM	Cc1nc[nH]c1CN(C)c1cccc(N(CC(C)C)C(=O)c2ccccc2F)c1 [ESC1002204]	96.7 ± 3.61%	5.05 ± 0.01%	EC50 [3, 10]: 1.36 µM; k (elimination constant) [5]: 0.11; Heps category [5]: high; Cl (clearance) [5]: >50 mL/min/g liver; half-life [5]: 6.2 min; IC50 [4, 11]: 0.398 µM
3.13 µM		0.891 µM	CC(C)CN(C(=O)c1ccccc1F)c1cccc(N(C)Cc2ccn[nH]2)c1 [ESC1002205]	82.52 ± 0.57%	5.84 ± 0.01%	
7.22 µM		0.166 µM	COc1ccc(-c2ccccc2C2CCCN2C(=O)c2sccc2C)cc1 (centres unmarked) [ESC1002332]	87.7 ± 1.67%	3.52 ± 0.01%	
1.15 µM			COc1cccc(-c2ccccc2C2CCCN2C(=O)c2sccc2C)c1 (centres unmarked) [ESC1002338]	83 ± 1.25%	4.64 ± 0.01%	IC50 ([4]; enzyme screening assay, read-out: IC50): 0.191 µM
	0.933 µM		Cc1ccsc1C(=O)N1CCC[C@H]1c1ccccc1-c1cnn(C)c1 [ESC1002424]			LipE [4]: 2.1
			COc1cccc(-c2ccccc2[C@H]2CCCN2C(=O)c2ccccc2C)c1 [ESC1002434]			17β-HSD10 inhibitory activity (in words) [4]: not tolerated
0.599 µM		0.245 µM	COc1ccc(C(=O)N(CC(C)C)c2cccc(N(C)Cc3c[nH]cn3)c2)c(F)c1 [ESC1002576]	79.1 ± 0.99%	5.19 ± 0.01%	
			COc1cccc(-c2ccccc2C2CCCN2C(=O)c2sccc2Cl)c1 (centres unmarked) [ESC1002606]	78 ± 1.09%	5.09 ± 0.02%	
	0.457 µM		COc1cccc(-c2ccccc2[C@@H]2CCCN2C(=O)c2[nH]ncc2Cl)c1 [ESC1002626]			
		9.33 µM	CC(C)CN(C(=O)c1ccccc1F)c1cccc(NCc2c[nH]cn2)c1 [ESC1002631]			
0.138 µM	0.0589 µM		O=C(c1sccc1Cl)N1CCC[C@H]1c1ccccc1-c1cccc(O)c1 [ESC1002666]	79.3 ± 1.03%	4.49 ± 0.02%	
			COc1cccc(-c2ccccc2C2CCCN2Cc2sccc2F)c1 (centres unmarked) [ESC1002695]			17β-HSD10 inhibitory activity (in words) [4]: lost all activity
0.028 µM	0.02 µM		O=C(c1sccc1Cl)N1CCCC1c1ccccc1-c1cccc(O)c1 (centres unmarked) [ESC1002755]	85.3 ± 2.01%	5.47 ± 0.04%	EC50 [3, 10]: 0.028 µM; k (elimination constant) [5]: 0.22; Heps category [5]: high; Cl (clearance) [5]: >50 mL/min/g liver; half-life [5]: 3.1 min; IC50 [4, 11]: 0.0186 µM; fold improvement in activity/potency over hit ESC1002082 [4]: 40 fold
0.266 µM	0.115 µM		COc1cccc(-c2ccccc2C2CCCN2C(=O)c2[nH]ncc2Cl)c1 (centres unmarked) [ESC1002757]	89.52 ± 0.84%	5.03 ± 0.02%	EC50 [3, 10]: 0.266 µM; k (elimination constant) [5]: 0.13; Heps category [5]: high; Cl (clearance) [5]: >50 mL/min/g liver; half-life [5]: 5.3 min; LipE [4]: 2.76; IC50 [4, 11]: 0.105 µM
0.449 µM	0.049 µM		O=C(c1sccc1Cl)N1CCCC1c1ccccc1-c1ccc(F)c(O)c1 (centres unmarked) [ESC1002775]	81.53 ± 0.56%	2.54 ± 0.004%	
0.05 µM	0.0513 µM		O=C(c1sccc1Cl)N1CCCC1c1ccccc1-c1cc(O)cc(F)c1 (centres unmarked) [ESC1002801]	82.55 ± 0.62%	5.50 ± 0.01%	

From publication PMC12281485, “High-Throughput Screening of Potent Drug-like Molecules Targeting 17β-HSD10 for the Treatment of Alzheimer’s Disease and Cancer” (ACS Chemical Biology, 2025)
